Source: patent US10028975B2, “Methods for treating ischemia-reperfusion injury” (Beth Israel Deaconess Medical Center, Inc., priority 2010, dated 2018)

Columns and labels:
Syk [1] = assay: Syk expression by Western blot in T cells transfected with Syk siRNA; format: cell-based; settings: T cells electroporated with siRNA at 0.5, 0.7, 0.9, 1.5 and 2 μM per million, approximately 72 hours
Method: Different concentrations (0.5, 0.7, 0.9, 1.5, and 2 μM per million) of T cells were transfected by electroporation using Amexa Nucleofector solution. Briefly, a total of 5×10^6 T cells were re-suspended in 100 μl Nucleofector solution (Lonza Walkerrsville Inc.; Walkersville, Md.). The desired amount of Syk siRNA was mixed in with the T cell/nucleofector suspension and electrporated. The transfected cells were plated in RPMI-1640 medium without any antibiotic and incubated for approximately 72 hours. After proper incubation, transfected T cells were lysed in RIPA buffer, and Western blotting was performed with an antibody against total Syk (Clone 4D10; Santa Cruz Biotechnology, Inc.; Santa Cruz, Calif.).

neutrophil infiltration = assay: Neutrophil infiltration (GR-1 staining) in intestine and lung; format: in vivo, mouse
Method: (§1) For immunofluorescence (IF) staining, formalin-fixed paraffin-embedded sections were blocked with 10% BSA-PBS at room temperature for 1 hour and incubated with FITC-labeled primary or secondary antibodies at room temperature for 1 hour. The slides were washed, and coverslips were mounted with Dako Fluorescent mounting medium and analyzed by confocal microscopy (Nikon Eclipse Ti, Nikon Instruments, Melville, N.Y.). FITC-labeled goat anti-mouse IgG (Santa Cruz, Calif., sc2010), FITC-labeled rat anti-mouse C3 (11H9) (Santa Cruz, Calif., sc-58926), FITC-labeled goat anti-mouse IgM (Southern Biotech, 1021-02), and FITC-labeled rat anti-mouse Ly-6G and LY-6C (Clone R6B-8C5) (BD Pharmingen) were the antibodies used in these studies.
Therefore, we evaluated the presence of neutrophils in the intestine and lung after sham and I/R procedures in mice treated with Syk inhibitor. Mice subjected to I/R had more prominent GR-1 staining within the intestinal tissue after 3-hour reperfusion when compared to the sham-operated mice group.

Syk [2] = molecular target: T1, Syk (Mus musculus, UniProt P48025); assay: Syk staining in intestine and lung by immunohistochemistry; format: in vivo; settings: pre-treatment with Syk inhibitor, IHC
T1 construct: formalin-fixed paraffin sections of intestine and lung were subjected to rehydration and antigen retrieval; from tissue; host or cells: intestine and lung of C57BL/6J mice
T1 sequence (P48025 whole entry): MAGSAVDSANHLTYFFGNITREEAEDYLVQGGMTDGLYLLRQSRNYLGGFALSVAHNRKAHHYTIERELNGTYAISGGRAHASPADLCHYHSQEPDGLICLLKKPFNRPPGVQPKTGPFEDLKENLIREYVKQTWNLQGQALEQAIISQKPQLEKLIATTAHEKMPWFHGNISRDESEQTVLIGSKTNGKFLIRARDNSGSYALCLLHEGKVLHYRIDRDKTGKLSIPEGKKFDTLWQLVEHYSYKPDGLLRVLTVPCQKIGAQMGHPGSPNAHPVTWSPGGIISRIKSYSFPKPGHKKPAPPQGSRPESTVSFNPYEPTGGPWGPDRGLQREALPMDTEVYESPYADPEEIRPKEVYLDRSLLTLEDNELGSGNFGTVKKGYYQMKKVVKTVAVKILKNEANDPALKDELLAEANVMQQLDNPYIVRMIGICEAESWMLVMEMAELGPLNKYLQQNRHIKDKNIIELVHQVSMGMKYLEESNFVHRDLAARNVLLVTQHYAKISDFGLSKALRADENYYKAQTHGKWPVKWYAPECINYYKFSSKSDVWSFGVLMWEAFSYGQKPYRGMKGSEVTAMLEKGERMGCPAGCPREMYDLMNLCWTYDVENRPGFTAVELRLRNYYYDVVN
Method: (§2) In order to perform immunohistochemistry (IHC) staining, formalin-fixed paraffin sections of intestine and lung were subjected to rehydration and antigen retrieval using a standard protocol. For IHC studies, the following reagents were used: rabbit anti-mouse Syk (N-19) (Santa Cruz, Calif.), rabbit anti-mouse p-Syk (phospho Y323) (Abeam, Inc.), and rabbit anti-mouse C3 (B-9) (Santa Cruz, Calif.).
Syk expression in the intestine and lung were evaluated by IHC. Syk staining in intestines and lungs were more prominent in I/R groups than in sham-operated groups.

[3] = tested on: C57BL/6J mice subjected to mesenteric I/R (lung); assay: Remote lung injury scoring (H&E) after mesenteric ischemia-reperfusion; format: in vivo, mouse; settings: mean±SEM; for total lung injury score: I/R mice, 3 h reperfusion, scale 0-18
Text: (§3) Mice were randomly assigned to the following experimental groups: (a) mouse chow+sham procedures, (b) mouse chow+I/R procedures, (c) control chow+sham procedures, (d) control chow+I/R procedures, (e) R788 (3 g/kg)+sham procedures, (f) R788 (3 g/kg)+I/R procedures, and (g) R788 (5 g/kg)+I/R procedures […].
(§4) Syk inhibitor R788 was provided by Rigel Pharmaceuticals (South San Francisco, Calif.). Mice were fed food containing R788 (3 g/kg of chow, n=6 or 5 g/kg of chow, n=3), control chow (n=6), or regular chow (n=6). Food was prepared by Research Diets, Inc. (New Brunswick, N.J.). C57BL/6J mice were fed the R788-containing chow ad libitum for 6 days prior to experimentation in order to determine the effect of R788 on I/R injury.
Animals underwent I/R as had been described previously (Chiu et al., Arch Surg. 101: 478-483, 1970 and Fleming et al., J Immunol. 169: 2126-2133, 2002). Briefly, we performed a midline laparotomy before a 30-minute equilibration period. […] The laparotomy incisions were sutured with 4.0 SOFSILK™, the mice resuscitated with 1.0 mL pre-warmed sterile phosphate-buffered saline (PBS) subcutaneously, and monitored during the reperfusion period. […]
Alveolar and periluminal injury scores in each lung section were calculated based on Cooke's method (Cooke et al., Blood 8: 3230-3239, 1996). For each lung section, we examined 10-20 fields at high power field magnification (400×) and scored for alveolar infiltration on a 3-tiered scale. The calculation of alveolar scores was as follows: when no infiltrate was present, a score of 0 was given; when the infiltrate could be visualized easily only at 400×, a score of 1 was assigned; when infiltrates were readily visible, a score of 2 was assigned; and the score for consolidation was 3. Similarly, each section was scored for periluminal damage (airway or blood vessel) at 100×. […] Based on the overall involvement of the section, a severity score was calculated: the severity score for 0-25% involvement was 1; a severity score of 2 was assigned for 25-50% involvement; and the severity score for >50% involvement was 3. […]

IgM deposition = assay: IgM staining in intestine and lung by immunofluorescence; format: in vivo, mouse; settings: I/R intestinal and lung samples, both tissues
Method: as §1
Reperfusion after ischemia induced alteration of the endothelial membrane and allows neoantigen expression. Circulating natural IgM antibodies bind to these antigens and may trigger complement-mediated injury (Williams et al., J Applied Physiol. 86: 938-942, 1999). Therefore, we performed IgM staining by IF, as described above. There was increased IgM staining in I/R intestinal and lung samples when compared to the sham tissues. […] Unlike the differences detected for natural IgM staining, we were only able to detect minimal IgG staining in all groups (data not shown).

[4] = molecular target: T2, phosphorylated Syk (p-Syk) (Mus musculus, UniProt P48025); assay: p-Syk staining in intestine and lung by IHC and IF; format: in vivo; settings: I/R mice group, Syk inhibitor treatment, 3-hour reperfusion
T2 construct: formalin-fixed paraffin sections of intestine and lung were subjected to rehydration and antigen retrieval; from tissue; host or cells: intestine and lung of C57BL/6J mice
T2 sequence (P48025 whole entry, the tested form may be a part): as the sequence (P48025 whole entry) above
Text: as §2, §1
Because the Syk inhibitor suppresses the expression of phosphorylated Syk (p-Syk), the active form of Syk, we performed p-Syk staining by using IHC and IF. We observed staining in I/R group mice. […] After a 3-hour reperfusion, we detected only slight p-Syk staining.

[5] = tested on: C57BL/6J mice subjected to mesenteric I/R (intestine); assay: Intestinal mucosal injury scoring (H&E) after mesenteric ischemia-reperfusion; format: in vivo, mouse; settings: mean±SEM; for intestinal injury score (mucosal injury score): I/R mice, 30 min ischemia, 3 h reperfusion, scale 0-6
Text: as §3, §4
Animals underwent I/R as had been described previously (Chiu et al., Arch Surg. 101: 478-483, 1970 and Fleming et al., J Immunol. 169: 2126-2133, 2002). Briefly, we performed a midline laparotomy before a 30-minute equilibration period. […] A small non-traumatic microvascular clip delivering approximately 85 grams of pressure was then applied for 30 minutes. The clip was removed after this ischemia phase, and the intestines were allowed to reperfuse for 3 hours. Sham-operated mice underwent the above-described surgical intervention without artery occlusion. The laparotomy incisions were sutured with 4.0 SOFSILK™, the mice resuscitated with 1.0 mL pre-warmed sterile phosphate-buffered saline (PBS) subcutaneously, and monitored during the reperfusion period. […]
For histological analysis, 20-cm segments of small intestine specimens were fixed in 10% buffered formalin phosphate immediately after euthanasia. […] To summarize, a normal villus was assigned a score of 0; villi with tip distortion were scored as 1; villi without goblet cells and with Guggenheims' spaces were scored as 2; villi with patchy disruption of the epithelial cells were scored as 3; villi with exposed but intact lamina propria and sloughing of epithelial cell were scored as 4; villi with exuding lamina propria were scored as 5; and villi with hemorrhage or denudation were scored as 6. […]

[6] = tested on: complement component 3 protein (C3) deposition; assay: C3 deposition in intestine and lung by IHC and IF; format: in vivo, mouse; settings: I/R mice treated with Syk inhibitor
Text: as §2, §1
It has been reported that I/R activates the complement system, as indicated by C3 deposition on the intestine (Williams et al., supra). […]

[7] = sham-operated mice, Syk inhibitor (R788 3 g/kg chow)

For “SEQ ID NOs: 3 and 4: Syk-specific siRNA pair: sense CGCUCUUAAAGAUGAGUUAtt, antisense UAACUCAUCUUUAAGAGCGgg (sense CGCUCUUAAAGAUGAGUUATT; antisense UAACUCAUCUUUAAGAGCGGG; chemistry not given here)”, which “Syk expression (Western blot)” value (Syk [1]) is on record?
Its value is “can be inhibited”.

Which “Syk expression (Western blot)” value (Syk [1]) does the source give for “SEQ ID NOs: 5 and 6: Syk-specific siRNA pair: sense GCACUAUCGCAUCGACAAAtt, antisense UUUGUCGAUGCGAUAGUGCag (sense GCACUAUCGCAUCGACAAATT; antisense UUUGUCGAUGCGAUAGUGCAG; chemistry not given here)” here?
The value was “can be inhibited”.

With “SEQ ID NOs: 1 and 2: Syk-specific siRNA pair: sense GGAUAAGAACAUCAUAGAAtt, antisense UUCUAUGAUGUUCUUAUCCtt (sense GGAUAAGAACAUCAUAGAATT; antisense UUCUAUGAUGUUCUUAUCCTT; chemistry not given here)” as the compound, how does the “Syk expression (Western blot)” value (Syk [1]) read?
The value was “can be inhibited”.

Which results are given for `COc1cc(Nc2ncc(F)c(Nc3ccc4c(n3)N(COP(=O)(O)O)C(=O)C(C)(C)O4)n2)cc(OC)c1OC` [R788]?
I/R-induced neutrophil infiltration (GR-1 staining) (neutrophil infiltration; intestinal tissue, 3-hour reperfusion): prevented I/R-induced neutrophil infiltration; neutrophil infiltration in the lung tissues (neutrophil infiltration; lung tissue, I/R mice): decreased infiltration; Syk staining in either the intestine or the lung (Syk [2]): did not cause any changes; total lung injury score ([3]; 3 g/kg R788 in chow for 6 days): 1.36±0.18; total lung injury score ([3]; 5 g/kg R788 in chow for 6 days): 1.1±0.46; average pulmonary damage score [3, 7]: 1.03±0.26; IgM deposition (immunofluorescence staining) (IgM deposition): reduced IgM deposition; p-Syk staining in the lung and intestine [4]: eliminated p-Syk staining; intestinal injury score (mucosal injury score) ([5]; 3 g/kg R788 in chow for 6 days): 0.58±0.08; intestinal injury score (mucosal injury score) ([5]; 5 g/kg R788 in chow for 6 days): 0.92±0.14; intestinal injury score [5, 7]: 0.42±+0.33; C3 staining in the intestinal mucosa ([6]; intestine): attenuated C3 staining; C3 deposition in the lungs ([6]; lung): limited C3 deposition
